Values quoted from earlier work, collected in patent US7282487B2, “Method for treating bacterial infections in horses or pigs with tilmicosin” (priority 2004, dated 2007).

Compound: CC[C@H]1OC(=O)C[C@@H](O)[C@H](C)[C@@H](OC2OC(C)C(O)C(N(C)C)C2O)[C@@H](CCN2C[C@@H](C)C[C@H](C)C2)C[C@@H](C)C(=O)/C=C/C(C)=C/[C@@H]1COC1OC(C)C(O)C(OC)C1OC (stereo partly shown) [tilmicosin, Tilmicosin]
- solubility in aqueous solutions: moderately soluble
